Measurements reported in patent US9868737B2, “Pyridino[1,2-A]pyrimidone analogue used as MTOR/P13K inhibitor” (CISEN PHARMACEUTICAL CO., LTD., priority 2014, dated 2018).
Read-outs that look alike come from different tables or passages of the source.

System: MCF-7 cells
Test: In vitro test of cell activity (MCF-7 cells, insulin stimulation, ELISA-One fluorescence)
Assay type: cell-based
Settings: Homo sapiens, MCF7, MCF-7 cells; for inhibition at 1 µM: conc. 1 μM; for inhibition at 0.25 µM: conc. 0.25 μM; for inhibition at 0.5 µM: conc. 0.5 μM
Procedure: Example In Vitro Tests of Cell Activities Experimental Steps and Methods:
1) MCF-7 cells were inoculated at the density of 2.5×10^4 cells/well into 96-well plates (the culture medium used should be a complete culture medium containing 10% FBS).
2) On the next day, the medium in each well was drawn out. A certain concentration (preliminary screening) or a series of concentration (IC50 test) of compounds were dissolved in a culture medium without serum and added to the 96-well plates to culture cells for 2 hours.
3) Insulin was dissolved in a culture medium without serum, added to the cultured cells and incubated for 30 minutes, wherein the final concentration of insulin was […].
4) A lysis solution was prepared according to the following method during the waiting period for the reaction:
a) Enhancer solution was removed from the refrigerator to melt in advance.
b) Enhancer solution was diluted 10 times with the 5× Lysis Buffer to give a concentrated lysis solution.
c) The concentrated lysis solution was diluted 5 times with double distilled water to give the lysis solution.
5) The medium in each well was completely removed and each well was quickly rinsed with PBS once.
6) 150 μl of the freshly prepared lysis solution was added to each well and shaked at room temperature for 10 minutes.
7) After confirming that all cells were detached, the lysis solution together with the cell fragments was transferred into a 1.5 ml tube.
8) The tube was shaked on vortes mixer to make the lysis solution and cells mix completely and then the mixture was centrifugated at 4° C. under 12000 g for 10 minutes.
9) The number of strips of ELISA-one micro-well plate that is required was calculated. The needless strips were removed from the frame, put back into the storage bag and sealed. Before the strips of micro-well plate were used, 200 μl of double distilled water was used to rinse each well to remove preservative.
10) 50 μl of antibody mixture was added to each well. (The antibody mixture solution was prepared by mixing the medium antibody reagent and the enzyme labeled antibody reagent with an equal proportion. The preparation of antibody mixture didn't need vortex.)
11) 25 μl of cell lysates was added to each well of ELISA-One micro-well plate. The micro-well plate was covered with adhesive sealing film and incubated on a micro-well plate oscillation instrument at room temperature for 1 hour.
12) Each well was rinsed with 150 μl of 1× rinsing buffer 3 times. After the last rinsing, the rinsing buffer in the well was completely removed. If necessary, the 1× rinsing buffer could be allowed to stay in the micro-well plate for up to 30 minutes so that the substrate mixed solution could be prepared during such time period.
13) The substrate mixed solution should be prepared just before each use, 10 μl of the substrate mixed solution was added to each well and the micro-well plate was sealed with tin-foil and incubated on the micro-well plate oscillation instrument at room temperature for 10 minutes.
14) 10 μl of stop solution was added to each well and mixed slightly (5-10 seconds) on the micro-well plate oscillation instrument.
15) The corresponding ELISA-One filter group was assembled and used to read the fluorescence signal intensity.

| SMILES | IC50 (read-out: IC50 p-AKT) [nM] | IC50 (read-out: IC50 p-p70S6K) [nM] | inhibition at 0.5 µM (read-out: % inhibition AKT) [%] | inhibition at 0.5 µM (read-out: % inhibition p70s6k) [%] | other results |
| --- | --- | --- | --- | --- | --- |
| COc1ncc(-c2ccc3nccc(=O)n3c2)cc1NS(=O)(=O)c1ccc(Cl)cc1 [compound 23] | ≤ 50 | 100 to 250 |  |  | inhibition at 1 µM (read-out: % inhibition AKT): 95.7%; inhibition at 1 µM (read-out: % inhibition p70s6k): 93.9% |
| COc1ncc(-c2ccc3ncc(-n4ccc(C)n4)c(=O)n3c2)cc1NS(=O)(=O)c1ccc(F)cc1F [compound 216, 2,4-difluoro-N-(2-methoxy-5-(3-(3-methyl-1H-pyrazol-1-yl)-4-oxo-4H-pyrido[1,2-a]pyrimidin-7-yl)pyridin-3-yl)benzsulfamide] |  |  |  |  | inhibition at 0.25 µM (read-out: % inhibition AKT): 34.1%; inhibition at 0.25 µM (read-out: % inhibition p70s6k): 31% |
| COc1ncc(-c2ccc3nccc(=O)n3c2)cc1NS(=O)(=O)c1ccc(Cl)cc1F [compound 27] |  |  |  |  | inhibition at 1 µM (read-out: % inhibition AKT): 94.8%; inhibition at 1 µM (read-out: % inhibition p70s6k): 93.5% |
| COc1ncc(-c2cn3c(=O)ccnc3cc2C)cc1NS(=O)(=O)c1ccc(F)cc1F [compound 121, 2,4-difluoro-N-(2-methoxy-5-(8-methyl-4-oxo-4H-pyrido[1,2-a]pyrimidin-7-yl)pyridin-3-yl)benzsulfamide] |  |  | -27.1 | -2.2 |  |
| COc1ncc(-c2ccc3ncc(F)c(=O)n3c2)cc1NS(=O)(=O)c1ccc(C(F)(F)F)cc1 [compound 69] | ≤ 50 | 50 to 100 | 85.4 | 87.6 |  |
| COc1ncc(-c2cn3c(=O)ccnc3cc2C)cc1NS(=O)(=O)c1ccccc1Cl [compound 122] |  |  | -26.6 | 1.2 |  |
| COc1ncc(-c2cn3c(=O)ccnc3cc2F)cc1NS(=O)(=O)c1ccc(C(F)(F)F)cc1 [compound 118] |  |  | 27.8 | 11.5 |  |
| COc1ncc(-c2ccc3ncc(Cl)c(=O)n3c2)cc1NS(=O)(=O)c1cccc(Cl)c1 [compound 141] | ≤ 50 | ≤ 50 | 96.1 | 88.1 |  |
| COc1ncc(-c2ccc3ncc(OCCO)c(=O)n3c2)cc1NS(=O)(=O)c1ccc(F)cc1F [compound 178] | 50 to 100 |  |  |  |  |
| COc1ncc(-c2ccc3ncc(Cl)c(=O)n3c2)cc1NS(=O)(=O)c1ncc(C)s1 [compound 162] | 50 to 100 | 100 to 250 |  |  | inhibition at 0.25 µM (read-out: % inhibition AKT): 77.8%; inhibition at 0.25 µM (read-out: % inhibition p70s6k): 64.9% |
| COc1ncc(-c2ccc3nccc(=O)n3c2)cc1NS(=O)(=O)c1ccc(C)nc1 [compound 32] | 100 to 250 | 100 to 250 | 75.1 | 84.2 |  |
| CCOc1ncc(-c2ccc3nccc(=O)n3c2)cc1NS(=O)(=O)c1ccc(F)cc1F [compound 15] |  |  |  |  | inhibition at 1 µM (read-out: % inhibition AKT): 93.3%; inhibition at 1 µM (read-out: % inhibition p70s6k): 91.7% |
| COc1ncc(-c2ccc3nccc(=O)n3c2)cc1NS(=O)(=O)CC(F)(F)F [compound 13] |  |  |  |  | inhibition at 1 µM (read-out: % inhibition AKT): 78.3%; inhibition at 1 µM (read-out: % inhibition p70s6k): 53% |
| CCOc1cnc2ccc(-c3cnc(OC)c(NS(=O)(=O)c4ccccc4Cl)c3)cn2c1=O [compound 173] |  |  |  |  | inhibition at 0.25 µM (read-out: % inhibition AKT): 88.9%; inhibition at 0.25 µM (read-out: % inhibition p70s6k): 82.6% |
| CCOCCOc1cnc2ccc(-c3cnc(OC)c(NS(=O)(=O)c4sc(C)nc4C)c3)cn2c1=O [compound 199] | ≤ 50 |  |  |  |  |
| CCc1ncc(-c2ccc3nccc(=O)n3c2)cc1NS(=O)(=O)c1ccccc1F [compound 17] |  |  |  |  | inhibition at 1 µM (read-out: % inhibition AKT): 81.1%; inhibition at 1 µM (read-out: % inhibition p70s6k): 34.1% |
| COCCOc1cnc2ccc(-c3cnc(OC)c(NS(=O)(=O)c4ccc(F)cc4C(F)(F)F)c3)cn2c1=O [compound 278] | ≤ 50 |  |  |  |  |
| COc1ncc(-c2ccc3ncc(F)c(=O)n3c2)cc1NS(=O)(=O)c1ccc(F)cc1Cl [compound 62] | ≤ 50 | 50 to 100 | 90.2 | 90.8 |  |
| COc1ncc(-c2ccc3nccc(=O)n3n2)cc1NS(=O)(=O)c1ccc(F)cc1Cl [compound 78] |  |  | 72.6 | 32.6 |  |
| COc1ncc(-c2ccc3nccc(=O)n3c2)cc1NS(=O)(=O)c1sccc1Cl [compound 34] | ≤ 50 | 50 to 100 | 97 | 95.6 |  |
| COc1ncc(-c2cn3c(=O)ccnc3cc2C)cc1NS(=O)(=O)c1ccc(F)cc1C [compound 126] |  |  | -12.7 | 2.4 |  |

| SMILES | IC50 (read-out: IC50 p-AKT) [nM] | IC50 (read-out: IC50 p-p70S6K) [nM] | inhibition at 0.5 µM (read-out: % inhibition AKT) [%] | inhibition at 0.5 µM (read-out: % inhibition p70s6k) [%] | other results |
| --- | --- | --- | --- | --- | --- |
| COc1ncc(-c2cn3c(=O)ccnc3cc2F)cc1NS(=O)(=O)c1cccc(F)c1 [compound 115] |  |  | 43.6 | 6.5 |  |
| COc1ncc(-c2ccc3nccc(=O)n3c2)cc1NS(=O)(=O)c1cc(F)ccc1F [compound 4] | ≤ 50 | 100 to 250 |  |  | inhibition at 1 µM (read-out: % inhibition AKT): 95.6%; inhibition at 1 µM (read-out: % inhibition p70s6k): 50.8% |
| COc1ncc(-c2ccc3ncc(C)c(=O)n3c2)cc1NS(=O)(=O)c1ccccc1F [compound 84] | ≤ 50 | 50 to 100 | 93.8 | 88.7 |  |
| COCOc1cnc2ccc(-c3cnc(OC)c(NS(=O)(=O)c4sc(N)nc4C)c3)cn2c1=O [compound 184] | 50 to 100 |  |  |  |  |
| COc1ncc(-c2ccc3ncc(OC)c(=O)n3c2)cc1NS(=O)(=O)c1sc(N)nc1C [compound 109] | ≤ 50 |  |  |  |  |
| COc1ncc(-c2ccc3nccc(=O)n3c2)cc1NS(=O)(=O)c1sccc1C [compound 37] | ≤ 50 | 100 to 250 | 95.8 | 90.3 |  |
| COc1ncc(-c2ccc3ncc(Cl)c(=O)n3c2)cc1NS(=O)(=O)c1cnc(C)s1 [compound 156] | 50 to 100 | 100 to 250 |  |  | inhibition at 0.25 µM (read-out: % inhibition AKT): 77.9%; inhibition at 0.25 µM (read-out: % inhibition p70s6k): 74.1% |
| CNc1nc(C)c(S(=O)(=O)Nc2cc(-c3ccc4ncc(OCCOC)c(=O)n4c3)cnc2OC)s1 [compound 189] | ≤ 50 |  |  |  |  |
| COc1ncc(-c2ccc3nccc(=O)n3c2)cc1CS(=O)(=O)c1ccc(F)cc1F [compound 5] |  |  |  |  | inhibition at 1 µM (read-out: % inhibition AKT): 26%; inhibition at 1 µM (read-out: % inhibition p70s6k): 12.3% |
| COc1ncc(-c2cn3c(=O)ccnc3cc2C)cc1NS(=O)(=O)c1ccccc1F [compound 123] |  |  | -82.1 | 6.7 |  |
| COc1ncc(-c2ccc3ncc(Cl)c(=O)n3c2)cc1NS(=O)(=O)c1ccc(F)cc1C [compound 134] | ≤ 50 | 50 to 100 | 94.9 | 87.7 |  |
| COc1ncc(-c2ccc3nccc(=O)n3c2C)cc1NS(=O)(=O)c1cc(F)ccc1F [compound 60] |  |  | 67.9 | 43.9 |  |
| COc1ncc(-c2ccc3ncc(OC)c(=O)n3c2)cc1NS(=O)(=O)c1ccc(F)cc1C [compound 106] | ≤ 50 | 50 to 100 | 96.2 | 91.8 |  |
| COc1ncc(-c2ccc3ncc(Cl)c(=O)n3c2)cc1NS(=O)(=O)c1[nH]c(C)nc1C [compound 165] |  |  |  |  | inhibition at 0.25 µM (read-out: % inhibition AKT): 49.5%; inhibition at 0.25 µM (read-out: % inhibition p70s6k): 63.7% |
| COc1ncc(-c2ccc3ncc(F)c(=O)n3c2)cc1NS(=O)(=O)c1cccc(F)c1 [compound 67] | ≤ 50 | ≤ 50 | 85.8 | 89.7 |  |
| COCOCCOc1cnc2ccc(-c3cnc(OC)c(NS(=O)(=O)c4sc(C)nc4C)c3)cn2c1=O [compound 188] | ≤ 50 |  |  |  |  |
| COCCOc1cnc2ccc(-c3cnc(OC)c(NS(=O)(=O)c4sccc4C)c3)cn2c1=O [compound 182] | > 250 |  |  |  |  |
| COc1ncc(-c2ccc3nccc(=O)n3c2)cc1NS(=O)(=O)c1ccc(C(F)(F)F)cc1 [compound 22] | ≤ 50 | 100 to 250 |  |  | inhibition at 1 µM (read-out: % inhibition AKT): 94.5%; inhibition at 1 µM (read-out: % inhibition p70s6k): 94% |
| CCc1cc(F)ccc1S(=O)(=O)Nc1cc(-c2ccc3ncc(OCCOC)c(=O)n3c2)cnc1OC [compound 280] | ≤ 50 |  |  |  |  |
| COc1ncc(-c2ccc3nccc(=O)n3c2)cc1NS(=O)(=O)c1cnc2ccccc2c1 [compound 38] | ≤ 50 | > 250 | 91.5 | 79.4 |  |
| COc1ncc(-c2ccc3ncc(Cl)c(=O)n3c2)cc1NS(=O)(=O)c1ccc(F)cc1 [compound 146] |  |  |  |  | inhibition at 0.25 µM (read-out: % inhibition AKT): 77.6%; inhibition at 0.25 µM (read-out: % inhibition p70s6k): 83.7% |
